Assay results taken from patent US6756401B2, “Compositions and methods for treating osteoporosis and lowering cholesterol” (Pfizer Inc., priority 2000, dated 2004).

Experiments:
OVX rats [1] = experiment: Ovariectomized rat model: bone histomorphometry of fifth lumbar vertebral body; assay type: in vivo; details: 4 weeks
Excerpt: (§1) In women, estrogen deficiency during the menopause results in increased bone turnover leading to bone loss. Ovariectomy in rats produces estrogen deficiency and increased bone turnover leading to trabecular bone loss similar to that observed in post-menopausal women (Kalu, D. N., Bone and Mineral 1991 ;15:175; Frost, H. M., Jee W. S. S., Bone and Mineral 1992;18:227; Wronski, T. J., Yen, C-F, Cells Materials 1991;(suppl. 1):69). The OVX rat is thus an appropriate model to evaluate compounds for the prevention and treatment of post-menopausal osteoporosis. The ability of PPTN to inhibit estrogen deficiency bone loss was assessed in 5-month-old OVX rats, since ovariectomy causes significant bone loss in the lumbar vertebrae, proximal tibia, and distal femoral metaphyses (Ke, H. Z., et al., Endocrin 1995;136:2435; Chen, H. K., et al., J Bone Miner Res 1995;10:1256).
(§2) Five-month-old OVX female rats were treated with PPTN at oral doses of 0.733, 7.33, 73.3, and 733 μg/kg/day, or 17α-ethynyl estradiol (EE) at 30 μg/kg/day (10 rats per subgroup) daily for 4 weeks. The oral treatment began 1 day after surgery. Groups of vehicle-treated sham rats (n=10) and vehicle-treated OVX rats (n=10) served as controls. Calcein at 10 mg/kg was injected s.c. to all rats 12 and 2 days before necropsy as a fluorochrome bone marker to measure bone dynamic histomorphometric parameters. The effects of PPTN on the following end points were determined: (a) serum osteocalcin, a biochemical marker of bone turnover, (b) bone mineral density of lumbar vertebrae and distal femoral metaphyses, (c) bone histomorphometry of fifth lumbar vertebral body and proximal tibial metaphyses.
In order to understand the cellular mechanism of bone-protective effects of PPTN at the tissue level, bone histomorphometric methods were used to determine the effects of PPTN on cancellous bone of the fifth lumbar vertebral body in OVX rats. Ovariectomy caused significant decreases in trabecular bone volume (trabecular bone area divided by marrow space area, expressed as percent) and trabecular number, and a significant increase in trabecular separation of the fifth lumbar vertebral body.

MDA-MB-231 cells = experiment: Inhibition of in vitro human breast tumor cell growth, ER-negative cells; assay type: cell-based; details: MDA-MB-231 (ER-negative), 6 days incubation, direct cell counts
Method: The in vitro antiproliferative effects of (−)-cis-6-phenyl-5-[4-(2-pyrrolidin-1-yl-ethoxy)-phenyl]-5,6,7,8-tetrahydro-naphthalene-2-ol (PPTN) were tested using two types of human breast cancer cell lines: first, MCF-7 cells, which contain ER as well as progesterone receptors (PgR), and second, MDA-MB-231 cells, which lack ER and PgR, and enable the determination of an effect that is independent of the ER mechanism. The effect of PPTN on the growth of these different cell lines was determined by incubation of the cells with various compound concentrations for 6 days.
The antiproliferative effects were then determined by direct cell counts. PPTN inhibited the growth of the ER-positive cell line MCF-7.

OVX rats [2] = experiment: Ovariectomized rat model: serum osteocalcin by radioimmunoassay; assay type: in vivo; details: daily for 4 weeks
Excerpt: as §1
Five-month-old OVX female rats were treated with PPTN at oral doses of 0.733, 7.33, 73.3, and 733 μg/kg/day, or 17α-ethynyl estradiol (EE) at 30 μg/kg/day (10 rats per subgroup) daily for 4 weeks. […] The effects of PPTN on the following end points were determined: (a) serum osteocalcin, a biochemical marker of bone turnover, (b) bone mineral density of lumbar vertebrae and distal femoral metaphyses, (c) bone histomorphometry of fifth lumbar vertebral body and proximal tibial metaphyses. […]

OVX rats [3] = experiment: Ovariectomized rat model: histomorphometry of proximal tibial metaphyses; assay type: in vivo; details: 4 weeks
Excerpt: as §1, §2
In order to determine the effect of PPTN on long bone metaphyses, histomorphometric analyses were performed on the proximal tibiae.

OVX rats [4] = experiment: Ovariectomized rat model: lumbar vertebrae BMD by dual-energy X-ray absorptiometry; assay type: in vivo; details: 4 weeks
Excerpt: as §1, §2
The first to the sixth lumbar vertebrae from each rat were removed during necropsy. These were then scanned ex vivo using dual-energy X-ray absorptiometry. The scan images were analyzed, and bone area, bone mineral content (BMC), and bone mineral density (BMD) of whole lumbar vertebrae (WLV), and LV1 through LV6 were determined. […] The changes in BMC were similar to those observed in BMD. […]

OVX rats [5] = experiment: Ovariectomized rat model: femur BMD by dual-energy X-ray absorptiometry; assay type: in vivo; details: 4 weeks
Excerpt: as §1, §2
Using dual-energy X-ray absorptiometry, the right femur of each rat was scanned ex vivo. Bone mineral density (BMD) of the distal femoral metaphyses (second 0.5 cm from the distal end of femur) and the proximal femur (the first 0.5 cm from the proximal end of femur, which contains the femoral head, neck, and greater trochanter) was determined.

[6] = PPTN at doses ≧7.33 μg/kg/day oral
[7] = PPTN at 7.33, 73.3, or 733 μg/kg/day oral

In the case of `Oc1ccc2c(c1)CC[C@H](c1ccccc1)[C@@H]2c1ccc(OCCN2CCCC2)cc1` [PPTN, (−)-cis-6-phenyl-5-[4-(2-pyrrolidin-1-yl-ethoxy)-phenyl]-5,6,7,8-tetrahydro-naphthalene-2-ol], the “ED50 in preserving lumbar vertebral cancellous bone mass and structure” value (OVX rats [1]; OVX rats, oral, lumbar vertebrae) is reported as “less than 0.733 μg/kg/day”, the “bone loss in lumbar vertebrae” value (OVX rats [1]; PPTN at 0.733 μg/kg/day oral) is reported as “completely prevented bone loss” and the “trabecular number of fifth lumbar vertebral body compared with sham controls” value (OVX rats [1]; PPTN at 73.3 or 733 μg/kg/day oral) is reported as “significantly increased”. For the same compound, the “bone turnover rate, lumbar vertebral body” value (OVX rats [1]; PPTN at all dose levels, oral) was “did not differ from sham controls”, the “ovariectomy-induced increase in bone formation rate (BFR)” value (OVX rats [1]; PPTN at all dose levels, oral) was “inhibited this increase” and the “percent eroded surface (index of osteoclastic bone resorption) compared with sham controls” value (OVX rats [1]; PPTN at all dose levels, oral) was “significantly decreased”. The “ovariectomy-induced changes in trabecular bone volume, trabecular number and trabecular separation of fifth lumbar vertebral body” value (OVX rats [1]; all doses of PPTN (0.733 to 733 μg/kg/day oral)) was “completely prevented”, the “inhibition of cell proliferation” value (MDA-MB-231 cells) was “did not inhibit cell proliferation” and the “increase in serum osteocalcin concentration after ovariectomy” value (OVX rats [2]; [6]) was “completely prevented”. The “percent osteoclast surface compared with OVX controls” value (OVX rats [3]; PPTN at 0.733 μg/kg/day oral) was “decreased significantly”, the “prevention of bone loss in proximal tibiae” value (OVX rats [3]; PPTN at 0.733 μg/kg/day oral) was “failed to do so” and the “proximal tibial trabecular bone volume” value (OVX rats [3]; PPTN at 0.733 μg/kg/day oral) was “no significant effect”. The “osteoclast number per millimeter of bone surface compared with both sham and OVX controls” value (OVX rats [3]; [7]) was “significantly decreased”, the “percent osteoclast surface compared with both sham and OVX controls” value (OVX rats [3]; [7]) was “significantly decreased” and the “bone turnover rate in proximal tibial trabecular bone” value (OVX rats [3]; PPTN at doses of 7.33 to 733 μg/kg/day oral) was “did not differ from sham controls”. The “proximal tibial trabecular bone volume compared with OVX controls” value (OVX rats [3]; [6]) was “significantly greater”, the “lumbar vertebral BMD compared with both sham and OVX controls” value (OVX rats [4]; PPTN 73.3 μg/kg/day oral) was “increased significantly” and the “decrease in lumbar vertebral BMD after ovariectomy” value (OVX rats [4]; PPTN at all dose levels (0.733 to 733 μg/kg/day oral)) was “completely prevented the decrease”. For the same compound, the “BMD of distal femoral metaphyses and proximal femur” value (OVX rats [5]; PPTN at 0.733 or 7.33 μg/kg/day oral) was “did not differ from OVX controls” and the “decreases in BMD of distal femoral metaphyses and proximal femur” value (OVX rats [5]; PPTN at both 73.3 and 733 μg/kg/day oral) was “completely prevented the decreases”.

`C#C[C@]1(O)CC[C@H]2[C@@H]3CCc4cc(O)ccc4[C@H]3CC[C@@]21C` [EE, 17α-ethynyl estradiol, reference compound] was tested, and the “bone turnover rate, lumbar vertebral body” value (OVX rats [1]; EE 30 μg/kg/day oral) was “did not differ from sham controls”, the “ovariectomy-induced changes in trabecular bone volume, trabecular number and trabecular separation of fifth lumbar vertebral body” value (OVX rats [1]; EE 30 μg/kg/day oral) was “completely prevented” and the “ovariectomy-induced increase in bone formation rate (BFR)” value (OVX rats [1]; EE 30 μg/kg/day oral) was “inhibited this increase”. For the same compound, the “percent eroded surface (index of osteoclastic bone resorption) compared with sham controls” value (OVX rats [1]; EE 30 μg/kg/day oral) was “significantly decreased”, the “trabecular number of fifth lumbar vertebral body compared with sham controls” value (OVX rats [1]; EE 30 μg/kg/day oral) was “significantly increased” and the “increase in serum osteocalcin concentration after ovariectomy” value (OVX rats [2]; EE 30 μg/kg/day oral) was “completely prevented”. The “bone turnover rate in proximal tibial trabecular bone” value (OVX rats [3]; EE 30 μg/kg/day oral) was “did not differ from sham controls”, the “osteoclast number per millimeter of bone surface compared with both sham and OVX controls” value (OVX rats [3]; EE 30 μg/kg/day oral) was “significantly decreased” and the “percent osteoclast surface compared with both sham and OVX controls” value (OVX rats [3]; EE 30 μg/kg/day oral) was “significantly decreased”. The “decrease in lumbar vertebral BMD after ovariectomy” value (OVX rats [4]; EE 30 μg/kg/day oral) was “completely prevented the decrease”, the “decrease in BMD of distal femoral metaphyses after ovariectomy” value (OVX rats [5]; EE 30 μg/kg/day oral) was “prevented the decrease” and the “proximal femoral BMD” value (OVX rats [5]; EE 30 μg/kg/day oral) was “had no effect”.
